Several values for one entry are separate records, joined by “and”; a condition that tells them apart may be missing. Identical values can stand only once. Like-named read-outs stand apart in the source and are kept apart here.
Target: T1, OADH (Rattus norvegicus, UniProt Q4KLP0)
T1 sequence (Q4KLP0 45-920 limits assumed): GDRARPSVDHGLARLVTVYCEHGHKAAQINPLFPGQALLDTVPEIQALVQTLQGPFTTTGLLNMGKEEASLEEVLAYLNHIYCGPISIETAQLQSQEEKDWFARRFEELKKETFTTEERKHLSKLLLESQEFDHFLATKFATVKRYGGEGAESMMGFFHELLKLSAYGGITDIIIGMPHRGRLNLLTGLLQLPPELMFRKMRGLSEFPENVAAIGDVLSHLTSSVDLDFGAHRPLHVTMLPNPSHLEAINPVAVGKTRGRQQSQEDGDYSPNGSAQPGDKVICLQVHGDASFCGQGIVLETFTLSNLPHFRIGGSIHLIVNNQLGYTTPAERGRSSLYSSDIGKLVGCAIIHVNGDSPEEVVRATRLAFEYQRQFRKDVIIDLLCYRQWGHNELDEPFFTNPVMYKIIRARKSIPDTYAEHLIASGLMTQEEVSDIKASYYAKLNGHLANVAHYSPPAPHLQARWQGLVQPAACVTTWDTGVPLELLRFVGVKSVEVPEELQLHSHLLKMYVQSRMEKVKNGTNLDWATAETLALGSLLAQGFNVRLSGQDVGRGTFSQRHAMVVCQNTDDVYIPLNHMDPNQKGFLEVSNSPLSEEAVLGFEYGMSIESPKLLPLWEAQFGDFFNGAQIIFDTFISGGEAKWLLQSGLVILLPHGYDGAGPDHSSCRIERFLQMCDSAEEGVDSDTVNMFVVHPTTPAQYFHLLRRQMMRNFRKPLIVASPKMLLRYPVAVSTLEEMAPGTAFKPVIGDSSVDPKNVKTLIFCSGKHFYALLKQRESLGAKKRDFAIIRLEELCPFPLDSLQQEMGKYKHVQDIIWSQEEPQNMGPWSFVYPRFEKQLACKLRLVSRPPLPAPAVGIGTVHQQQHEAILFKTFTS
Assay: OADH reaction catalyzed by the enzyme preparation from rat liver, low [OA] (high-affinity OA sites)
Assay type: biochemical
Conditions: for Ki / Amax: OADH reaction, liver; for Amax: high-affinity sites
Experimental: Enzymes catalyzing OGDH and OADH reactions were enriched from rat hearts and livers using polyethylene glycol precipitation, as previously described (Artiukhov et al., [2020]).
The enzyme activities were assayed in the medium (pH 7.0) containing 50 mM MOPS, 1 mM ThDP, 1 mM MgCl2, 1 mM CaCl2, 1 mM dithiothreitol 0.15 mM Coenzyme A, 0.25 mM NAD^+ and various concentrations of 2-oxo substrates (0–10 mM OG or OA) and their phosphonate analogs (0–5,000 μM SP, GP, or AP). Reactions were started by addition of the enzyme preparations to the assay media. The amount of enzyme preparations (0.074 mg protein for the preparation from liver and 0.023 mg protein for the preparation from heart) were chosen to induce the lowest reliably measured reaction rate (ΔA340 = 0.001/min) at 0.01 mM OA without the phosphonates.
Reaction rates were calculated from linear parts of the product accumulation curves (up to 10 min, dependent on the reaction rate), excluding the initial region, where mixing the reagents and solubilization of the preparation affected the optical density.
Non-linear regression was used to approximate the experimental dependences of the reaction rates on the OG or OA concentration according to the Michaelis-Menten equation ( a=Amax*[S]/Km+[S] ) or its sum ( a=Amax*[S]/Km+[S]+Amax,2*[S]/Km,2+[S] ). The former equation describes one type of the active sites. […] The assumption was based on the presence of the two enzymes, OGDH and OADH, in the employed preparations.
The kinetic data were also analyzed by linear regression, using the known methods of the linearization of the Michaelis-Menten equation in the Lineweaver-Burk ( 1/a=1/Amax(1+Km/[S]) ) and Eadie-Hofstee ( a=Amax−Kmv/[S] ) coordinates. Due to the several orders of magnitude difference in the values of Km,1 and Km,2, the linear regression required separate analysis of the dependencies in the intervals of the low and high concentrations of 2-oxoadipate. The Km and Amax values obtained in independent experiments using the non-linear and linear regression analyses of the experimental data, were averaged and presented as Mean ± Standard Error of Mean.
To determine the inhibition constants (Ki), the effective values of Kmeff and Amaxeff , calculated from the hyperbolic or linear approximations as described above, were plotted against the concentration of the inhibitors ([I]). The linear regression of the equation Kmeff/Amaxeff=Km/Amax(1+[I]/Ki) , (Cornish-Bowden, [1979]) was applied to find the Intercept (Km/Amax) and Slope (Km/(Amax*Ki)) of a dependence. The values of Ki were determined as the ratio of the corresponding Intercepts to the Slopes. In the two-site model, the Ki(1) and Ki(2) were calculated separately from the linear approximations of Km,1eff/Amax,1eff vs. [I] and Km,2eff/Amax,2eff vs. [I] dependences, respectively. The standard errors of Ki were determined from means and standard errors of the Intercepts and the Slopes, using the previously described formula for standard deviation of a fraction (Bunik et al., [1999]). The Ki values obtained from the non-linear and linear regression analyses of the experimental data were averaged and presented as Mean ± Standard Error of Mean.

[1] = low [OA] 0–0.05 mM, Michaelis-Menten, read-out: Ki, MM
[2] = low [OA], Eadie-Hofstee, read-out: Ki, EH
[3] = low [OA], Lineweaver-Burk, read-out: Ki, LB
[4] = low [OA], average, read-out: Ki, Average

With `O=C(O)CCCC(=O)P(=O)(O)O` [GP, glutaryl phosphonate] the Ki [1] was 2400 ± 300 nM, the Ki [2] was 1900 ± 300 nM and the Ki [3] was 1600 ± 200 nM. For the same compound, the Ki [4] was 2000 ± 200 nM, the Amax ([I] 2 µM) was 0.0026 ± 0.0002 µmol/min per mg of protein and the Amax ([I] 10 µM) was 0.0018 ± 0.0001 µmol/min per mg of protein. For the same compound, the Amax ([I] 50 µM) was 0.0011 ± 0.00005 µmol/min per mg of protein, the Amax ([I] 200 µM) was 0.0016 ± 0.0001 µmol/min per mg of protein and the Amax ([I] 1000 µM) was 0.0013 ± 0.0001 µmol/min per mg of protein.
`O=C(O)CCCCC(=O)P(=O)(O)O` [AP, adipoyl phosphonate] was tested, and the Ki [1] was 50 nM and 44 nM, the Ki [2] was 44 ± 111 nM and the Ki [3] was 56 ± 118 nM. For the same compound, the Ki [4] was 48 ± 4 nM, the Amax ([I] 0.5 µM) was 0.0014 ± 0.0001 µmol/min per mg of protein and the Amax ([I] 2 µM) was 0.0056 ± 0.0022 µmol/min per mg of protein. The Amax ([I] 10 µM) was 0.0088 ± 0.0041 µmol/min per mg of protein.
`O=C(O)CCC(=O)P(=O)(O)O` [SP, succinyl phosphonate] showed a Ki [1] of 128000 ± 9000 nM, a Ki [2] of 110000 ± 7000 nM and a Ki [3] of 109000 ± 9000 nM. The Ki [4] was 116000 ± 6000 nM, the Amax ([I] 10 µM) was 0.0017 ± 0.0001 µmol/min per mg of protein and the Amax ([I] 50 µM) was 0.0016 ± 0.0001 µmol/min per mg of protein. The Amax ([I] 200 µM) was 0.0016 ± 0.00005 µmol/min per mg of protein, the Amax ([I] 1000 µM) was 0.0014 ± 0.0001 µmol/min per mg of protein and the Amax ([I] 5000 µM) was 0.0010 ± 0.00003 µmol/min per mg of protein.
`O=C(O)CCCC(=O)C(=O)O` [OA, 2-oxoadipate] was tested, and the “difference in the affinities of the two types of the sites to OA” value (hepatic preparation, low- vs high-affinity sites) was 60 fold.
